This is an account of results in patent publication US9375496B2, “Halogenated compounds for cancer imaging and treatment and methods for their use” (The University of British Columbia, priority 2013, dated 2016).

Like-named read-outs stand apart in the source and are kept apart here.

What is called IC50 is the point on the concentration scale where inhibition reaches its midpoint.

For assay [1], the target named is T1, AR (Homo sapiens, UniProt P10275, T878A).
T1 construct: LNCaP cells with endogenous AR; endogenous in cells; host or cells: LNCaP
T1 sequence (P10275 1-920 T878A): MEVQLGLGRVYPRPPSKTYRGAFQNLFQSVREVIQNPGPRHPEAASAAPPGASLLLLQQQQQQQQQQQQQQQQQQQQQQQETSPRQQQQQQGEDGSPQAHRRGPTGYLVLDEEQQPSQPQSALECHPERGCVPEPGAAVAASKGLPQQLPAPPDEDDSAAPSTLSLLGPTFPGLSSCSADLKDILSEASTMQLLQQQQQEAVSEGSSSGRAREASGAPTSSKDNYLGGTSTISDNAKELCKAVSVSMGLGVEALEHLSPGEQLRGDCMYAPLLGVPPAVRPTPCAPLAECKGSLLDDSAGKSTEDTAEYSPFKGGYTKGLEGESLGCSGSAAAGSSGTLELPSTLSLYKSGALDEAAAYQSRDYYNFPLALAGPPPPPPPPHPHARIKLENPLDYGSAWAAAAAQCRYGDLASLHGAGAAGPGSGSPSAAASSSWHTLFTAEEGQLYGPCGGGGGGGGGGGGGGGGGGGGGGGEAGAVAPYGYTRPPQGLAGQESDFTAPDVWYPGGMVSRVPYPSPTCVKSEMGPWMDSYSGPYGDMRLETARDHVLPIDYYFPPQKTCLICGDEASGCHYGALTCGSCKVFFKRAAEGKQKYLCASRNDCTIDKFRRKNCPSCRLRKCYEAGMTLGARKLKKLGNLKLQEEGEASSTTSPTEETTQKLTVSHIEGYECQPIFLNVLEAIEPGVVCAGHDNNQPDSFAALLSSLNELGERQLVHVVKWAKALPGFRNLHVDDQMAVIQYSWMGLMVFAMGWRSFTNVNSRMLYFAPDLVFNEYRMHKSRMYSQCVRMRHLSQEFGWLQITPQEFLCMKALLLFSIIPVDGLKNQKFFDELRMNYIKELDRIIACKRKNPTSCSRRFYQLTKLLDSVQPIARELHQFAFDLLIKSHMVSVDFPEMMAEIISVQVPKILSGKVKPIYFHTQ
The assay is described as follows: PSA(6.1 kb)-luciferase reporter assay in LNCaP cells (androgen-induced AR transcriptional activity). Format: cell-based. The conditions noted are these: LNCaP, PSA(6.1 kb)-luciferase, 1 h pre-treatment, R1881 1 nM 24 h. As for the experimental part: The PSA-luciferase (6.1 kb) reporter contains functional AREs to which AR binds in response to androgen to induce luciferase activity. LNCaP cells were transfected with the PSA(6.1 kb)-luciferase reporter for 24 h, and then treated with indicated concentration of 8d (also referred as EPI-iodide or iodinated EPI) with synthetic androgen, R1881 (1 nM) for 24 h. After 24 h of incubation with R1881, the cells were harvested, and relative luciferase activities were determined (FIG. 1A). To determine the IC50, treatments were normalized to the predicted maximal activity induction (in the absence of test compounds, vehicle only) (FIG. 1B).
To measure effect on AR, after the LNCaP cells were transfected with the PSA(6.1 kb)-luciferase reporter for 24 h, they were then treated with DMSO, 5 μM MDV3100, 25 μM Z (also referred to as EPI-002 or EPI), or 1.9 μM 8d with or without 1 nM R1881 for 24 h (FIG. 2A).
LNCaP cells were transiently transfected with PSA (6.1 kb)-luciferase for 24 h prior to pre-treatment with compounds of the invention (e.g., compounds 9d, 10d, 11d) ranging in concentration from 62.5 ng/ml to 1.5 ug/ml for 1 hour before the addition of vehicle, or synthetic androgen, R1881 (1 nM) to induce luciferase production. After 24 h of incubation with R1881, the cells were harvested, and relative luciferase activities were determined. To determine the IC50, treatments were normalized to the predicted maximal activity induction (in the absence of test compounds, vehicle only) (FIG. 1B).

For assay [2], the target named is T2, recombinant protein AR activation function-1 (AF1) (Homo sapiens, UniProt P10275).
T2 sequence (P10275 144-486 limits assumed): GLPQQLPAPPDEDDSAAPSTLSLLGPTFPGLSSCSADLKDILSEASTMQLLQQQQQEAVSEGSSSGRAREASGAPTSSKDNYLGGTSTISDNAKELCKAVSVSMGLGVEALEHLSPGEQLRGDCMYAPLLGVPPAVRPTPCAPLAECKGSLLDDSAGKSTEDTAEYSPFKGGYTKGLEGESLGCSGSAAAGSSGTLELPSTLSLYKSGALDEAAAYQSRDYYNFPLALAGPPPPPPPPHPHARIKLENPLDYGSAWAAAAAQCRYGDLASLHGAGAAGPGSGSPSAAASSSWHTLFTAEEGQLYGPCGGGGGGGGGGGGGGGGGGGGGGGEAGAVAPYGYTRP
In words: Covalent binding to recombinant AR AF1 evaluated by SDS-PAGE. The method, then:
Covalent binding experiments of 1d (also referred to as ^123I-EPI) to recombinant protein AR activation function-1 (AF1) was evaluated by SDS-PAGE (FIG. 15). After 6 h incubation at room temperature, 1d bound to the recombinant protein AR AF1. Less binding of 1d was observed when AR AF1 was pre-incubated with cold Z which is thought to bind to the same site as 1d. The SDS-PAGE gel was stained with Coomassie blue for loading control of the amount of AF1 protein.

[3] abbreviates: Trial 1, read-out: IC50 Trial 1.
Where [4] appears, read: Trial 2, read-out: IC50 Trial 2.
Where [5] appears, read: Trial 3, read-out: IC50 Trial 3.
The mark [6] stands for this setting: Trial 4, read-out: IC50 Trial 4.
Where [7] appears, read: average of 4 trials, read-out: IC50 Average.

Take `CC(C)(c1ccc(OC[C@H](O)CO)cc1)c1ccc(OC[C@H](O)CCl)c(Cl)c1` [Compound 10d, (R)-3-(4-(2-(3-chloro-4-((S)-3-chloro-2-hydroxypropoxy)phenyl)propan-2-yl)phenoxy)propane-1,2-diol]: the IC50 in assay [1] (setting [3]) came out at 2530 nM; in assay [1] (setting [4]), 2300 nM; in assay [1] (setting [5]), 2810 nM; in assay [1] (setting [6]), 2840 nM; in assay [1] (setting [7]) it was 2620 nM.
As for `CC(C)(c1ccc(OC[C@H](O)CO)cc1)c1ccc(OC[C@H](O)CCl)c([123I])c1` [Compound 1d, (R)-3-(4-(2-(4-((S)-3-chloro-2-hydroxypropoxy)-3- ^123iodophenyl)propan-2-yl)phenoxy)propane-1,2-diol], the “covalent binding to recombinant protein AR AF1” value in assay [2] (6 h incubation at room temperature) is reported as “bound”. For the same molecule, in assay [2] (AR AF1 pre-incubated with cold Z), the “binding to AR AF1 after pre-incubation with cold Z” value was “Less binding”.
Regarding `CC(C)(c1ccc(OC[C@H](O)CO)cc1)c1ccc(OC[C@H](O)CCl)c(Br)c1` [Compound 9d, (R)-3-(4-(2-(3-bromo-4-((S)-3-chloro-2-hydroxypropoxy)phenyl)propan-2-yl)phenoxy)propane-1,2-diol], the IC50 in assay [1] (setting [3]) was 2070 nM; in assay [1] (setting [4]), 2740 nM; in assay [1] (setting [5]) it was 2960 nM; in assay [1] (setting [6]), 3360 nM; in assay [1] (setting [7]), 2780 nM.
The like results for `CC(C)(c1ccc(OC[C@H](O)CO)cc1)c1ccc(OC[C@H](O)CCl)c(F)c1` [Compound 11d, (R)-3-(4-(2-(4-((S)-3-chloro-2-hydroxypropoxy)-3-fluorophenyl)propan-2-yl)phenoxy)propane-1,2-diol] were, in that order, 5950 nM, 3600 nM, 7330 nM, 5400 nM and 5570 nM.
